Results taken from patent US6087358A (priority 1997, dated 2000).
≈ marks a conversion by molar mass, not a printed value. Where two headings read alike, the source gives them in different places.

Key:
[1] = tested on: Mycobacterium bovis (rBCG-lux); assay: microbe, parasite or virus in culture; assay type: cell-based, Mycobacterium bovis bacille Calmette Guerin; details: Mycobacterium tuberculosis variant bovis, 72 h; read-out: % of control, measured in RLUs
[2] = tested on: M. tuberculosis H37 Rv in human THP-1 macrophages; assay: In vitro activity against M. tuberculosis in human macrophages (luciferase bioluminescence); assay type: cell-based, Mycobacterium tuberculosis, in human THP-1 cells
[3] = tested on: Mycobacterium bovis BCG (recombinant strain); assay: microbe, parasite or virus in culture; assay type: cell-based; details: Mycobacterium tuberculosis variant bovis BCG, BCG, 144 h; 6 days 37° C.; read-out: MIC, column A, 3(S) compounds
Cryptosporidium parvum = assay: Inhibition of Cryptosporidium parvum (ELISA, infected HCT-8 monolayers); assay type: cell-based; details: for inhibition at 25 µg/mL: 25 μg/mL; for inhibition at 50 µg/mL: 50 μg/mL; for inhibition at 100 µg/mL: 100 μg/mL
Procedure: Susceptibility testing against Cryptosporidium was performed according to published procedures (K. Woods, M. Nesterenko, S. Upton, "Development of a microtiter ELISA to quantify development of Cryptosporidium parvum in vitro," FEMS Microbiology Letters, 128:89-94 (1995).
Compounds were solubilized to a concentration of 100 mg/mL in 100% DMSO. DMSO solutions of test compounds were added to the test wells of a microplate at a volume that produced a final concentration of DMSO of 0.2%. Monolayers of human ileocecal adenocarcinoma cells (HCT-8) were prepared by growth in RPMI 1640 medium in 96-Well tissue culture trays for 24 h. Oocysts of C. parvum were allowed to excyst in 10% bleach for 10 min prior to use. Monolayers were then infected with 2-3×10^4 oocysts/well and incubated in the presence or absence of compound for 48 h at 35° C. in 5% CO2 and 95% humidity. Background consisted of wells containing killed oocysts (freeze thaw cycle following 30 sec exposure to liquid nitrogen). Growth control wells were infected with 2-3×10^4 oocysts/well in the absence of test compounds. At the end of incubation, wells were washed and fixed by adding 100 uL of 4% formalin in phosphate buffered saline (pH 7.3) per well for 2 h. After blocking with 1% bovine serum albumin, and 0.002% Tween 20, 50 uL of rat anti-Cryptosporidium membrane protein antiserum was added. After 30 min, wells were washed in PBS and 50 uL of secondary antibody (goat anti-rat antibody conjugated with horseradish peroxidase) was added. After 20-30 min, wells were washed again in PBS and 50 uL of 3,3',5,5'-tetramethylbenzidine solution was added. Plates were allowed to develop for 10-15 min and the optical density was read at 630 nm. Percent inhibition was calculated by comparing the optical density of the drug treated group to that of the untreated control.

[4] = tested on: Clostridium difficile ATCC 17857; assay: In vitro inhibition of Clostridium difficile (Oxyrase broth microdilution MIC); assay type: cell-based; details: Clostridioides difficile, ATCC17857; Clostridium difficile ATCC 17857, Oxyrase broth; read-out: MIC, column D, 3(S) compounds
Helicobacter pylori = assay: In vitro inhibition of Helicobacter pylori (broth microdilution MIC); details: for MIC: Helicobacter pylori
[5] = Cryptosporidium parvum, HCT-8, 48 h, read-out: Percent Inhibition of C. parvum

With `NNC(=O)c1ccncc1` [Isoniazid, reference compound] the activity at 0.15 µg/mL [1] was 158%, the activity at 0.31 µg/mL [1] was 122% and the activity at 0.62 µg/mL [1] was 110%. It also gave an activity at 1.25 µg/mL [1] of 51.1%, an activity at 2.5 µg/mL [1] of 34.1% and an activity at 5 µg/mL [1] of 11.4%. It also gave an RLU values ([2]; 0.03 μg/mL, day 1) of 20360 RLU, an RLU values ([2]; 0.03 μg/mL, day 2) of 61355 RLU and an RLU values ([2]; 0.03 μg/mL, day 3) of 89528 RLU. The RLU values ([2]; 0.03 μg/mL, day 4) was 68253 RLU, the RLU values ([2]; 0.03 μg/mL, day 7) was 89032 RLU and the RLU values ([2]; 0.06 μg/mL, day 1) was 32192 RLU. It also gave an RLU values ([2]; 0.06 μg/mL, day 2) of 36680 RLU, an RLU values ([2]; 0.06 μg/mL, day 3) of 40344 RLU and an RLU values ([2]; 0.06 μg/mL, day 4) of 27408 RLU. The RLU values ([2]; 0.06 μg/mL, day 7) was 15855 RLU, the RLU values ([2]; 0.13 μg/mL, day 1) was 31113 RLU and the RLU values ([2]; 0.13 μg/mL, day 2) was 33898 RLU. It also gave an RLU values ([2]; 0.13 μg/mL, day 3) of 36634 RLU, an RLU values ([2]; 0.13 μg/mL, day 4) of 25282 RLU and an RLU values ([2]; 0.13 μg/mL, day 7) of 13373 RLU.

For `O=C(Nc1ccc(OC(F)(F)F)cc1)N[C@@H]1COc2nc([N+](=O)[O-])cn2C1` [PA-1298], the MIC [3] was 0.015 µg/mL (≈ 0.0387 µM), the “Toxic (given in place of percent inhibition)” value (Cryptosporidium parvum; 200 μg/mL, HCT-8 monolayers) was “Toxic” and the inhibition at 25 µg/mL (Cryptosporidium parvum; [5]) was 11.9%. It also gave an inhibition at 50 µg/mL (Cryptosporidium parvum; [5]) of 30% and an inhibition at 100 µg/mL (Cryptosporidium parvum; [5]) of 85%.

`O=[N+]([O-])c1cn2c(n1)OC[C@@H](OCc1ccc(F)cc1F)C2` [PA-654] was tested, and the MIC [3] was > 5 µg/mL and the MIC [4] was 3.12 µg/mL (≈ 10 µM).

In the case of `O=[N+]([O-])c1cn2c(n1)OC[C@@H](OCc1c(F)c(F)c(F)c(F)c1F)C2` [PA-652], the MIC [3] is reported as > 5 µg/mL and the MIC [4] is reported as 3.12 µg/mL (≈ 8.54 µM).

In the case of `CC[C@@H](CO)NCCN[C@@H](CC)CO` [Ethambutol], the activity at 0.15 µg/mL [1] is reported as 179%, the activity at 0.31 µg/mL [1] is reported as 152% and the activity at 0.62 µg/mL [1] is reported as 98.8%. For the same compound, the activity at 1.25 µg/mL [1] was 148%, the activity at 2.5 µg/mL [1] was 54.8% and the activity at 5 µg/mL [1] was 53.1%.

For `O=C(Nc1ccc(Cl)cc1)N[C@@H]1COc2nc([N+](=O)[O-])cn2C1` [PA-1282, 4-Chlorophenyl Urea of 3S 3-Amino-6-nitro-3,4-dihydro-[2-1b]imidazopyran], the MIC [3] was ≤ 0.002 µg/mL.

Compound `COc1ccc(CO[C@@H]2COc3nc([N+](=O)[O-])cn3C2)cc1` [PA-736] has an MIC [3] of 8 µg/mL (≈ 26.2 µM), an inhibition at 25 µg/mL (Cryptosporidium parvum; [5]) of -3.2% and an inhibition at 50 µg/mL (Cryptosporidium parvum; [5]) of 3%. For the same compound, the inhibition at 100 µg/mL (Cryptosporidium parvum; [5]) was 45% and the inhibition at 200 µg/mL (Cryptosporidium parvum; Cryptosporidium parvum, HCT-8, 200 μg/mL, 48 h, read-out: Percent Inhibition of C. parvum) was 97.7%.

With `CC1(C)S[C@@H]2[C@H](NC(=O)[C@H](N)c3ccc(O)cc3)C(=O)N2[C@H]1C(=O)O` [Amoxicillin, reference compound] the “MICs of control drugs relative to expected values” (Helicobacter pylori; H. pylori ATCC 43) was “within the expected values”, the MIC (Helicobacter pylori; 72 h, read-out: MIC against Helicobacter pylori, strain 17 (Table 5A)) was 0.016 µg/mL (≈ 0.0438 µM) and the MIC (Helicobacter pylori; 72 h, read-out: MIC against Helicobacter pylori, strain 19 (Table 5A)) was 0.016 µg/mL (≈ 0.0438 µM). The MIC (Helicobacter pylori; 72 h, read-out: MIC against Helicobacter pylori, strain 20 (Table 5A)) was 0.032 µg/mL (≈ 0.0876 µM), the MIC (Helicobacter pylori; 72 h, read-out: MIC against Helicobacter pylori, strain 40 (Table 5A)) was 0.032 µg/mL (≈ 0.0876 µM) and the MIC (Helicobacter pylori; 72 h, read-out: MIC against Helicobacter pylori, strain 43 (Table 5A)) was 0.016 µg/mL (≈ 0.0438 µM). The MIC (Helicobacter pylori; 72 h, read-out: MIC against Helicobacter pylori, strain 76 (Table 5A)) was 0.032 µg/mL (≈ 0.0876 µM) and the MIC (Helicobacter pylori; ATCC43504, 72 h, read-out: MIC against Helicobacter pylori, strain ATCC 43504 (Table 5A)) was 0.06 µg/mL (≈ 0.164 µM).

`[H]/N=C(/N)N[C@H]1[C@H](O)[C@@H](O)[C@H](O[C@@H]2O[C@@H](C)[C@](O)(C=O)[C@H]2O[C@@H]2O[C@@H](CO)[C@H](O)[C@@H](O)[C@@H]2NC)[C@@H](N/C(N)=N\[H])[C@@H]1O` [Streptomycin] showed an activity at 0.15 µg/mL [1] of 63.5%, an activity at 0.31 µg/mL [1] of 39.8% and an activity at 0.62 µg/mL [1] of 19.6%. The activity at 1.25 µg/mL [1] was 11.7%, the activity at 2.5 µg/mL [1] was 8% and the activity at 5 µg/mL [1] was 4.4%.

With `CCCCCCCCO[C@@H]1COc2nc([N+](=O)[O-])cn2C1` [PA-602, 3S n-Octyloxy-6-nitro-2H-3,4-dihydro-[2-1b]imidazopyran] the MIC [3] was < 5 µg/mL and the MIC [4] was 3.12 µg/mL (≈ 10.5 µM).
